In patent publication US20230330053A1, “METHOD FOR TREATING INFECTIONS” (priority 2020, published 2023):
Entries after “also recorded” stand apart in the source; their conditions may differ.

How the values were obtained:
[1] = test system: SARS-CoV-2 (USA-WA1/2020 strain); experiment: Direct injection into SARS-CoV-2 viral suspension, plaque assay on Vero E6 cells; assay type: cell-based; details: for Effect on viral burden at the lower volumes: formula 2 and 5 μls, or corresponding propionic acid 1.4 and 3.9 μls, isoamyl hexanoates 0.6 and 1.1 μls
SARS-CoV-2 = experiment: Sx direct injection into SARS-CoV-2 suspension in MEM, Vero E6 plaque assay; assay type: cell-based
[2] = biological target: receptor binding domain (RBD) of the SARS-CoV-2 spike protein to ACE2 (Severe acute respiratory syndrome coronavirus 2, UniProt P0DTC2); details: cited from earlier work

| Molecule | Decline in viral burden after 360 mins post-addition ([1]; 37° C., 1.4 μls alone) [log10 PFU/ml] | Decline in viral burden after 360 mins post-addition ([1]; 37° C., 3.9 μls alone) [log10 PFU/ml] | Effect on viral burden at the lower volumes [1] | Volume necessary for a relative immediate inactivation of the virus (SARS-CoV-2; acid alone) | Volume necessary to get any appreciable activity (SARS-CoV-2; acid alone) | Suppression of SARS-CoV-2 by the component alone ([1]; 37° C., all treatment arms) | Reduction in activity of the virus (SARS-CoV-2; 1.1 μL alone, at about 100 min) [log] | Virus activity after 300 min relative to control (SARS-CoV-2; esters alone) | General reduction in virus activity within about 30 min (SARS-CoV-2; esters alone, over the range of concentrations tested) [log] | Reduction in activity over the course of 300 minutes (SARS-CoV-2; highest concentration of 4.6 μL alone) | Reduction of activity on adding peptide to the virus [2] [%] |
| --- | --- | --- | --- | --- | --- | --- | --- | --- | --- | --- | --- |
| CCC(=O)O [propionic acid] | 0.29 | 0.98 | minimal reduction of viral burden | at least 15.4 μL | up to 7.7 μL |  |  |  |  |  |  |
| isoamyl hexanoates |  |  | minimal reduction of viral burden |  |  | substantially less effective | ~1 | about equaled that of the control; also recorded: approximately equaled that of the control | ~1 | 1 order of magnitude |  |
| GluGluLeuGlu |  |  |  |  |  |  |  |  |  |  | 34 |
